Assay [1] concerns cultured corneal endothelial cells. The note with it: cited from earlier work.
The test system of a further assay is corneal endothelium. The settings on record: instillation of 10 mM; cited from earlier work.
Assay [2] deals with rabbit corneal endothelial cells. Briefly: Adhesion of cultured corneal endothelial cells to culture plate (Example 6). The assay is classed as cell-based. The settings on record: 3 hours after seeding. The procedure:
In this Example, rabbit corneal endothelial cells prepared in the same manner as in Example 4 were used. In this Example, moreover, test substances and control substance prepared in the same manner as in Example 4 were used. The collected rabbit corneal endothelial cells were diluted, and a culture medium (about 4 ml, DMEM (Invitrogen, Cat. #12320-032), 10% FBS, 2 ng/mL bFGF (Invitrogen, Cat. #13256-029) and 1% penicillin/streptomycin (Invitrogen, Cat. #15070-063)) was added to the cells. Then, each medicament was added to the culture medium to final concentrations of 0.09, 0.32, 0.95, 3.16 and 9.47 μM compound (I), 10 μM Y-27632 and 10 μM Fasudil. As a control, DMSO was added to a final concentration of 0.04%. These cells were seeded in a 96 well plate (Corning Incorporated, Cat. #3595) at 1000 cells/well. After 3 hours from the seeding, suspended cells were removed, and adhered cells were counted by CellTiter-Glo (registered trade mark) Luminescent Cell Viability Assay (promega Cat. #G7572).

The subject of assay [3] is corneal endothelial loss model. Briefly: Rabbit corneal endothelial loss model, high concentration instillation (Example 2). The assay is classed as in vivo. The settings on record: 0.05 w/v % (1.58 mM) instillation, 6 times a day, 2 days.
Assay [4] relates to rabbit corneal endothelial cells. Briefly: Wound healing model of cultured corneal endothelial cells (Example 5). The assay is classed as cell-based. The procedure: In this Example, rabbit corneal endothelial cells prepared in the same manner as in Example 4 were used. In this Example, moreover, test substances and control substance prepared in the same manner as in Example 4 were used. Collected rabbit corneal endothelial cells were diluted with a culture medium (about 4 ml, DMEM (Invitrogen, Cat. #12320-032), 10% FBS, 2 ng/mL bFGF (Invitrogen, Cat. #13256-029) and 1% penicillin/streptomycin (Invitrogen, Cat. #15070-063)), and seeded at a division ratio of 1:4 by 2 ml per well in a 6 well plate (Corning Incorporated, Cat. #3516). The cells were incubated to confluent under conditions of 37° C. and 5% CO2. Wound was created in the confluent cells using 1000 μL chip (Molecular BioProducts, 2279). Then, each medicament was added to the culture medium to a final concentration of 0.09, 0.32, 0.95, 3.16 and 9.47 μM compound (I), 10 μM Y-27632 and 10 μM Fasudil. As a control, DMSO was added to a final concentration of 0.04%. At 6 hours, 12 hours and 24 hours after addition of each medicament, the width of the wound was photographed over time, and the width of the wound was evaluated by image analysis.

In the case of `C[C@@H](N)[C@H]1CC[C@H](C(=O)Nc2ccncc2)CC1` [Y-27632, reference compound], the cell adhesion result in assay [1] is “promoting cell adhesion”. The “wound healing of corneal endothelium” value with corneal endothelium is given as “promotes wound healing of corneal endothelium”.
Consider `C[C@@H](N)c1ccc(C(=O)Nc2ccnc3[nH]ccc23)cc1.Cl` [compound (I), (R)-(+)-N-(1H-pyrrolo[2,3-b]pyridin-4-yl)-4-(1-aminoethyl)benzamide monohydrochloride], for which the figures for the “number of adherent cells” value in assay [2] (0.32 μM) and in assay [2] (all addition groups (0.09-9.47 μM)) were “almost the same level as 10 μM Y-27632” and “increased the number of adherent cells”, respectively. Besides, the “concentration at which the number of adherent cells reached plateau” value in assay [2] is on record as “not less than 0.32 μM”. For the same compound, in assay [3], the “effect in rabbit corneal endothelial loss model” value is given as “effect can be confirmed”. For the same compound, the wound healing effect result in assay [4] (0.95 μM, student's t-test) is given as “showed a wound healing effect from the early stages of the addition”. In addition, the wound width entry in assay [4] (9.47 μM, versus control) is listed as “no statistically significant difference from the control group”; in assay [4] (0.09-3.16 μM, 24 hours after addition, Dunnett's test) it was “significantly decreased”. The “concentration showing a wound healing effect” value in assay [4] (in vitro wound healing model, Example 5) was in the range of 0.09 to 3.16 µM.
